Converted amounts (≈) assume the structure as drawn. Where two headings read alike, the source gives them in different places.
How the values were obtained:
[1] = system: Staphylococcus aureus Newman; experiment: Antibacterial activity against S. aureus Newman; format: cell-based; settings: Table S22
[2] = in vitro; format: in vitro ADME, mouse; settings: for half-life at 1 μM: 1 μM compound, pooled CD-1 mouse plasma, read-out: Mouse plasma t1/2
Description: Plasma stability assays: To determine stability in plasma, the compound (1 μM) was incubated with pooled CD-1 mouse plasma (Neo Biotech, Nanterre, France). Samples were taken by mixing aliquots with 4 volumes of cold internal standard solution (12.5 nM diphenhydramine in 10% methanol/acetonitrile). The plasma stability of procain, propantheline and diltiazem were determined in parallel to confirm the enzymatic activity. Samples were stored on ice until the end of the incubation and precipitated protein was removed by centrifugation (15 min, 4 °C, 4,000 g, two centrifugation steps). Concentration of the remaining test compound at the different time points was analyzed by HPLC-MS/MS (Vanquish Flex coupled to a TSQ Altis Plus, Thermo Fisher, Dreieich, Germany). […]

[3] = in vitro; format: in vitro ADME, mouse; settings: for microsomal CLint: C57BL/6, mouse, microsomes; for half-life: mouse, read-out: Mouse liver microsome t1/2
Description: Assays in liver microsomes: For metabolic stability, the compound (1 μM) was incubated with 0.5 mg/mL pooled mouse (C57BL/6) microsomes (Xenotech, Kansas City, USA), 2 mM NADPH, 10 mM MgCl2 at 37 °C for 120 min on a microplate shaker. The metabolic stability of testosterone, verapamil and ketoconazole were determined in parallel to confirm the enzymatic activity of mouse/rat liver microsomes. The incubation was stopped after defined time points by precipitation of aliquots of the incubation mixture with 2 volumes of cold internal standard solution (15 nM diphenhydramine in 10% methanol/acetonitrile). Samples were stored on ice until the end of the incubation and precipitated protein was removed by centrifugation (15 min, 4 °C, and 4,000 g). Concentration of the remaining test compound at the different time points was analyzed by HPLC-MS/MS (Vanquish Flex coupled to a TSQ Altis Plus, Thermo Fisher, Dreieich, Germany) and used to determine half-life (t1/2). […]

[4] = system: E. coli ΔacrB (JW0451-2); experiment: Antibacterial activity against E. coli ΔacrB; format: cell-based; settings: Escherichia coli, read-out: E. coli ΔacrB (JW0451-2) MIC
[5] = system: A549 (human lung carcinoma cell line); experiment: Cytotoxicity assay (MTT, 5 d) on A549; format: cell-based; settings: for IC50: Homo sapiens, A549, 120 h, MTT, 5 d incubation; for Cytotoxic activity against A549 (in words): positive control doxorubicin
Description: (§1) Cytotoxicity assay: A549 (human lung carcinoma cell line; ACC 107) and CHO-K1 (chinese hamster ovary cells; ACC 110) were obtained from the German Collection of Microorganisms and Cell Cultures (DSMZ) and cultured under the conditions recommended by the depositor. Cells were propagated in Dulbeccos’s Modified Eagle’s Medium (DMEM) and Ham’s F12 medium, respectively, supplemented with 10% fetal bovine serum (FBS), and seeded at 6×10^3 cells per well of 96-well plates in 120 μL of complete medium. After 2 h of equilibration (37 °C, 5% CO2), the cells were treated with a serial dilution of cytochalasins in 60 µL growth medium. Cytochalasins, doxorubicin as reference, as well as the solvent control were tested as duplicates in two independent experiments. After 5 d of incubation (37 °C, 5% CO2), a total of 20 μL of 5 mg/ml MTT (thiazolyl blue tetrazolium bromide) in phosphate -buffered saline (PBS) were added to each well […]
(§2) and the cells were further incubated for 2 h at 37 °C before the supernatant was discarded.
(§3) Subsequently, the cells were washed with 100 μL of PBS and treated with 100 μl of 2-propanol/10 N HCl (250:1) to dissolve formazan granules. Cell viability was measured as percentage relative to the respective solvent control by measuring the absorbance at 570 nm using a microplate reader (Tecan Infinite M200Pro). GraphPad Prism (version 10.0.3, GraphPad, Boston, MA, USA) was used for sigmoidal curve fitting to determine the IC50 values.

[6] = system: CHO-K1 (chinese hamster ovary cells); experiment: Cytotoxicity assay (MTT, 5 d) on CHO-K1; format: cell-based; settings: Cricetulus griseus, CHO-K1, 120 h
Description: as §1, §2, §3

[7] = Table S22, intrinsic clearance calculated from microsomal metabolism data
[8] = Table S22, 1 μM compound, 0.5 mg/mL pooled C57BL/6 microsomes
[9] = Table 1, intrinsic clearance from microsomal metabolism data
[10] = Table 1, 1 μM compound, 0.5 mg/mL pooled C57BL/6 microsomes, 120 min

Compound | MIC [1] | half-life at 1 μM ([2]; Table S22) | microsomal CLint [3, 7] | half-life [3, 8] | MIC [4] | IC50 ([5]; Table S22) | IC50 ([6]; Table S22, 5 d incubation) | half-life at 1 μM ([2]; Table 1) | Compound remaining in mouse plasma ([2]; Table 1, at 240 min) | Compound remaining in mouse plasma ([2]; Table S22, at 4 h) | microsomal CLint [3, 9] | half-life [3, 10] | IC50 ([5]; Table 1) | Cytotoxic activity against A549 (in words) [5] | IC50 ([6]; Table 1, 5 d incubation) | Mouse liver microsome t1/2 [3, 8]
C[C@H]1C/C=C/[C@H]2[C@@H]3O[C@]3(C)[C@@H](C)[C@H]3[C@H](Cc4ccccc4Br)NC(=O)[C@]32C(=O)C[C@@H](O)[C@@](C)(O)C1=O [Compound 21, o-bromo-19-hydroxy-21-oxocytochalasin Q] | > 64 µg/mL | > 240 min | 124 ± 9 µL/min/mg | 11.2 ± 0.8 min | > 64 µg/mL | 0.79 ± 0.24 µg/mL (≈ 1.41 µM) | 3.04 ± 0.18 µg/mL (≈ 5.42 µM) |  |  |  |  |  |  |  |  | 
CC(=O)OC1C2OC2C(C)C(=O)C(C)CC=CC2C(O)C(C)=C(C)C3C(Cc4ccccc4)NC(=O)C213 (stereo not drawn) [Compound 5, 18-desoxy-19,20-epoxycytochalasin C] | > 64 µg/mL |  |  |  | > 64 µg/mL |  |  | > 240 min | 74 ± 5% | >240 (74 ± 5% at 4 h) | 132 ± 38 µL/min/mg | 11 ± 3 min | 0.87 ± 1.38 µg/mL (≈ 1.71 µM) | comparable to the positive control | 9.88 ± 7.69 µg/mL (≈ 19.5 µM) | 
COc1cccc2c1C(=O)c1c(O)c3c(c(O)c1C2=O)C[C@@](O)(C(=O)CO)C[C@@H]3O[C@H]1C[C@H](N)[C@H](O)[C@H](C)O1 [doxorubicin, reference compound] |  |  |  |  |  |  |  |  |  |  |  |  | 0.3 µg/mL (≈ 0.552 µM) |  |  | 
CC(=O)OC1C2OC2C(C)(O)C(=O)C(C)CC2OC2C2C3OC3(C)C(C)C3C(Cc4ccccc4)NC(=O)C132 (stereo not drawn) [Compound 8, 19,20-epoxycytochalasin R] | > 64 µg/mL | > 240 min | 37 ± 4 µL/min/mg | 38 ± 4 min | > 64 µg/mL | > 37 µg/mL | 17.3 ± 8.94 µg/mL (≈ 32 µM) |  |  |  |  |  |  |  |  | 
CC1CC=CC2C3OC3(C)C(C)C3C(Cc4ccccc4)NC(=O)C23C(O)C2OC2C(C)C1=O (stereo not drawn) [Compound 1, deacetyl-18-desoxy-19,20-epoxycytochalasin Q] | > 64 µg/mL | > 240 min | 102 ± 13 µL/min/mg | 13.8 ± 1.8 min | > 64 µg/mL | 0.32 ± 0.1 µg/mL (≈ 0.687 µM) | 1.21 ± 0.31 µg/mL (≈ 2.6 µM) |  |  |  |  |  |  |  |  | 
CC(=O)OC1C2OC2C(C)C(=O)C(C)CC=CC2C3OC3(C)C(C)C3C(Cc4cccc(Cl)c4)NC(=O)C213 (stereo not drawn) [Compound 16, m-chloro-18-desoxy-19,20-epoxycytochalasin Q] | > 64 µg/mL |  |  |  | > 64 µg/mL | 1.02 ± 0.13 µg/mL (≈ 1.88 µM) | 3.13 ± 2.94 µg/mL (≈ 5.77 µM) | > 240 min |  |  | 984 ± 105 µL/min/mg | 1.4 ± 0.1 min | 0.08 ± 0.02 µg/mL (≈ 0.148 µM) |  | 0.41 ± 0.1 µg/mL (≈ 0.756 µM) | 
CC1CC=CC2C3OC3(C)C(C)C3C(Cc4cccc(Cl)c4)NC(=O)C23C(O)C2OC2C(C)(O)C1=O (stereo not drawn) [Compound 15, m-chloro-deacetyl-19,20-epoxycytochalasin Q] | > 64 µg/mL |  |  |  | > 64 µg/mL | 0.08 ± 0.03 µg/mL (≈ 0.155 µM) |  | > 240 min |  |  | 39 ± 3 µL/min/mg | 36 ± 3 min | 0.04 ± 0.03 µg/mL (≈ 0.0775 µM) | lower nanomolar activities | 0.81 ± 0.1 µg/mL (≈ 1.57 µM) | 
CC1CC=CC2C3OC3(C)C(C)C3C(Cc4ccccc4Br)NC(=O)C23C(=O)C2OC2C(C)(O)C1=O (stereo not drawn) [Compound 20, o-bromo-19,20-epoxy-21-oxocytochalasin Q] | > 64 µg/mL | > 240 min | 234 ± 28 µL/min/mg | 6 ± 0.7 min | > 64 µg/mL | 0.62 ± 0.04 µg/mL (≈ 1.11 µM) | 1.38 ± 0.04 µg/mL (≈ 2.47 µM) |  |  |  |  |  |  |  |  | 
CC1=C(C)C2C(Cc3cccc(Br)c3)NC(=O)C23C(O)C2OC2C(C)(O)C(=O)C(C)CC=CC3C1O (stereo not drawn) [Compound 17, m-bromo-deacetyl-19,20-epoxycytochalasin C] | > 64 µg/mL |  |  |  | > 64 µg/mL | 0.19 ± 0.02 µg/mL (≈ 0.339 µM) |  | > 240 min |  |  | 43 ± 4 µL/min/mg | 32 ± 3 min | 0.14 ± 0.02 µg/mL (≈ 0.25 µM) | lower nanomolar activities | 0.49 ± 0.12 µg/mL (≈ 0.874 µM) | 
CC(=O)OC1C2OC2C(C)(O)C(=O)C(C)CC=CC2C(O)C3(C)OC3(C)C3C(Cc4ccccc4)NC(=O)C213 (stereo not drawn) [Compound 27, 19,20-epoxycytochalasin N] | > 64 µg/mL |  |  |  | > 64 µg/mL |  |  | 133 ± 9 min |  |  | < 11.6 µL/min/mg | > 120 min | 0.84 ± 0.04 µg/mL (≈ 1.56 µM) |  | 10.6 ± 1.42 µg/mL (≈ 19.6 µM) | >120 min
CC(=O)OC1C2OC2C(C)(O)C(=O)C(C)CC=CC2C3OC3(C)C(C)C3C(Cc4cccc(Br)c4)NC(=O)C213 (stereo not drawn) [Compound 18, m-bromo-19,20-epoxycytochalasin Q] | > 64 µg/mL |  |  |  | > 64 µg/mL | 0.31 ± 0.01 µg/mL (≈ 0.515 µM) |  | > 240 min |  |  | 77 ± 19 µL/min/mg | 19 ± 4 min | 0.19 ± 0.01 µg/mL (≈ 0.315 µM) |  | 0.94 ± 0.21 µg/mL (≈ 1.56 µM) | 
CC1CC=CC2C3OC3(C)C(C)C3C(Cc4cccc(Br)c4)NC(=O)C23C(O)C2OC2C(C)(O)C1=O (stereo not drawn) [Compound 19, m-bromo-deacetyl-19,20-epoxycytochalasin Q] | > 64 µg/mL | > 240 min | 60 ± 4 µL/min/mg | 23.1 ± 1.5 min | > 64 µg/mL | > 37 µg/mL | 0.63 ± 0.24 µg/mL (≈ 1.12 µM) |  |  |  |  |  |  |  |  | 
CC(=O)OC1C2OC2C(C)(O)C(=O)C(C)CC=CC2C3OC3(C)C(C)C3C(Cc4cccc(Cl)c4)NC(=O)C213 (stereo not drawn) [Compound 14, m-chloro-19,20-epoxycytochalasin Q] | > 64 µg/mL | > 240 min | 45.7 ± 1.6 µL/min/mg | 30.4 ± 1.1 min | > 64 µg/mL | 0.11 ± 0.05 µg/mL (≈ 0.197 µM) | 0.69 ± 0.07 µg/mL (≈ 1.24 µM) |  |  |  |  |  |  |  |  | 
C=C1C(C)C2C(Cc3ccccc3)NC(=O)C23C(C=CCC(C)C(=O)C(C)(O)C2OC2C3OC(C)=O)C1O (stereo not drawn) [Compound 9, 19,20-epoxycytochalasin D] | > 64 µg/mL |  |  |  | > 64 µg/mL |  |  | > 240 min |  |  | 35 ± 3 µL/min/mg | 40 ± 3.7 min |  |  | 10.3 ± 5.07 µg/mL (≈ 19.8 µM) | 

— publication PMC12848680, “Microbial Cross-Talk: Unlocking the Cytochalasin Diversity from a Termite-Associated Xylaria” (JACS Au, 2025)
